# Experimental data published in patent US20110178064A1, “SPIRO CONDENSED […] DERIVATIVES FOR USE AS ANTIBACTERIAL” (A[…]&D, priority 2007, published 2011).
# Target: Escherichia coli DNA gyrase A/B tetramer (Escherichia coli, UniProt P0AES4+P0AES6)
# Assay: DNA gyrase supercoiling activity fluorescence polarisation assay
# Assay type: biochemical
# Conditions: not given
# Method in brief: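 Gyrase supercoiling reactions quenched with 40 nM 5′-BODIPY-FL oligodeoxynucleotide triplex probe in pH 3.5 NaCl/sodium acetate buffer; fluorescence anisotropy read after 60 min (485/535 nm).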
# Chain of Escherichia coli DNA gyrase A/B tetramer (P0AES4 whole entry, one chain of several): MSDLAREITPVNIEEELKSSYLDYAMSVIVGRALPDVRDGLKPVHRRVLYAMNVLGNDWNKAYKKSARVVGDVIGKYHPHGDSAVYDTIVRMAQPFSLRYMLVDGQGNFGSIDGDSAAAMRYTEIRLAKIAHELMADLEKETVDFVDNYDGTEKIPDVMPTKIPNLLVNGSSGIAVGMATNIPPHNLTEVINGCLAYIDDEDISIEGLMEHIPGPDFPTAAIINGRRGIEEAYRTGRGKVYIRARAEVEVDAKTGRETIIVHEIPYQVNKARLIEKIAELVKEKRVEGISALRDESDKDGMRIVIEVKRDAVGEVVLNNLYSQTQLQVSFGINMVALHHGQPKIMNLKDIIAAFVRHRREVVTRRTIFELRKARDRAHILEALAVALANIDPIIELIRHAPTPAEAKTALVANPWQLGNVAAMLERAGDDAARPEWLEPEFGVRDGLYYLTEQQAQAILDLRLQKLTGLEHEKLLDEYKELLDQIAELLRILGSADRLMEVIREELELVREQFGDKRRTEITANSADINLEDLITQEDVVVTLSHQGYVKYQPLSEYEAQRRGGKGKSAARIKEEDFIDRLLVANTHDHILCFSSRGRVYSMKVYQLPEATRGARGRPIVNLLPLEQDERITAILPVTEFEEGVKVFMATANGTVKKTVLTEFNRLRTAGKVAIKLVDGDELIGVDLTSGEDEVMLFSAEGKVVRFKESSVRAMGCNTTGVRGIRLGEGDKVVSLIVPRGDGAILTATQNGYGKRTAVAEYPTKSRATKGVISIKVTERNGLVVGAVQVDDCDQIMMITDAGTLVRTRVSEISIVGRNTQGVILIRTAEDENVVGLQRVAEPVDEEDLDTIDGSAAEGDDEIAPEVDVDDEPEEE
row,Compound,IC50 [µM]
1,"C[C@H]1CN2c3ncc(-c4nnnn4C)cc3CC3(C(=O)NC(=O)NC3=O)[C@@H]2[C@@H](C)O1 (relative stereo) [Example 120(b), (6aR,7R,9S)-rel-7,9-Dimethyl-3-(1-methyl-1H-tetrazol-5-yl)-6a,7,9,10-tetrahydro-2′H,5H-spiro[1,4-oxazino[4,3-a][1,8]naphthyridine-6,5′-pyrimidine]-2′,4′,6′(1′H,3′H)-trione]",14
2,"C[C@@H]1CN2c3ncc(C(=N)NO)cc3CC3(C(=O)NC(=O)NC3=O)[C@H]2[C@H](C)O1 (relative stereo) [Example 121, (6aS,7S,9R)-rel-N-Hydroxy-7,9-dimethyl-2′,4′,6′-trioxo-1′,3′,4′,6′,6a,7,9,10-octahydro-2′H,5H-spiro[1,4-oxazino[4,3-a][1,8]naphthyridine-6,5′-pyrimidine]-3-carboximidamide]",9
3,"Cc1nc(-c2cnc3c(c2)CC2(C(=O)NC(=O)NC2=O)[C@H]2[C@H](C)O[C@H](C)CN32)no1 (relative stereo) [Example 122, (6aS,7S,9R)-rel-7,9-dimethyl-3-(5-methyl-1,2,4-oxadiazol-3-yl)-6a,7,9,10-tetrahydro-2′H,5H-spiro[1,4-oxazino[4,3-a][1,8]naphthyridine-6,5′-pyrimidine]-2′,4′,6′(1′H,3′H)-trione]",10
4,"C[C@@H]1CN2c3ncc(-c4noc(-c5ccccc5)n4)cc3CC3(C(=O)NC(=O)NC3=O)[C@H]2[C@H](C)O1 (relative stereo) [Example 123, (6aS,7S,9R)-rel-7,9-Dimethyl-3-(5-phenyl-1,2,4-oxadiazol-3-yl)-6a,7,9,10-tetrahydro-2′H,5H-spiro[1,4-oxazino[4,3-a][1,8]naphthyridine-6,5′-pyrimidine]-2′,4′,6′(1′H,3′H)-trione]",9
5,"CC1CC(C)C2N(C1)c1cnc(Br)cc1CC21C(=O)NC(=O)NC1=O (stereo not shown) [Example 2, 3-Bromo-7,9-Dimethyl-5,6a,7,8,9,10-hexahydro-1′H-spiro[pyrido[1,2-a][1,7]naphthyridine-6,5′-pyrimidine]-2′,4′,6′(3′H)-trione]",9
6,"O=C1NC(=O)C2(Cc3ccnc(Cl)c3N3CCCCC32)C(=O)N1 (stereo not shown) [Example 4, 1-chloro-5,6a,7,8,9,10-Hexahydro-1′H-spiro[pyrido[1,2-a][1,7]naphthyridine-6,5′-pyrimidine]-2′,4′,6′(3′H)-trione]",> 100
7,"O=C1NC(=O)C2(Cc3c(F)cncc3N3CCCCC32)C(=O)N1 (stereo not shown) [Example 5, 4-Fluoro-5,6a,7,8,9,10-Hexahydro-1′H-spiro[pyrido[1,2-a][1,7]naphthyridine-6,5′-pyrimidine]-2′,4′,6′(3′H)-trione]",> 100
8,"CC1C[C@@H](C)[C@H]2N(C1)c1ncccc1CC21C(=O)NC(=O)NC1=O (stereo partly drawn) [Example 7, (6aR,7R)-7,9-Dimethyl-5,6a,7,8,9,10-hexahydro-1′H-spiro[pyrido[1,2-a][1,8]naphthyridine-6,5′-pyrimidine]-2′,4′,6′(3′H)-trione]",3
9,"CC1C[C@@H](C)[C@H]2N(C1)c1ccc(Br)nc1CC21C(=O)NC(=O)NC1=O (stereo partly drawn) [Example 8, (6aR,7R)-3-Bromo-7,9-dimethyl-5,6a,7,8,9,10-hexahydro-1′H-spiro[pyrido[1,2-a][1,5]naphthyridine-6,5′-pyrimidine]-2′,4′,6′(3′H)-trione]",> 83
10,"O=C1NC(=O)C2(Cc3cc(Br)cnc3N3CCCCC32)C(=O)N1 (stereo not shown) [Example 10, 3-Bromo-5,6a,7,8,9,10-hexahydro-1′H-spiro[pyrido[1,2-a][1,8]naphthyridine-6,5′-pyrimidine]-2′,4′,6′(3′H)-trione]",> 83
11,"CC1C[C@@H](C)[C@H]2N(C1)c1ncc(Br)cc1CC21C(=O)NC(=O)NC1=O (stereo partly drawn) [Example 11, (6aR,7R)-3-Bromo-7,9-dimethyl-5,6a,7,8,9,10-hexahydro-1′H-spiro[pyrido[1,2-a][1,8]naphthyridine-6,5′-pyrimidine]-2′,4′,6′(3′H)-trione]",30
12,"C[C@H]1C[C@@H](C)[C@H]2N(C1)c1c(ccnc1Cl)CC21C(=O)NC(=O)NC1=O [Example 13, (6aR,7R,9S)-1-chloro-7,9-dimethyl-5,6a,7,8,9,10-hexahydro-1′H-spiro[pyrido[1,2-a][1,7]naphthyridine-6,5′-pyrimidine]-2′,4′,6′(3′H)-trione]",25
13,"Cc1nnc(-c2cc3c(nc2F)N2C[C@@H](C)C[C@@H](C)[C@@H]2C2(C3)C(=O)NC(=O)NC2=O)s1 [Example 17, (6aR,7R,9S)-2-Fluoro-7,9-dimethyl-3-(5-methyl-1,3,4-thiadiazol-2-yl)-5,6a,7,8,9,10-hexahydro-1′H-spiro[pyrido[1,2-a][1,8]naphthyridine-6,5′-pyrimidine]-2′,4′,6′(3′H)-trione]",6
14,"C[C@H]1C[C@@H](C)[C@H]2N(C1)c1cnc(-c3ccn[nH]3)cc1CC21C(=O)NC(=O)NC1=O [Example 117, (6aR,7R,9S)-7,9-Dimethyl-3-(1H-pyrazol-5-yl)-5,6a,7,8,9,10-hexahydro-1′H-spiro[pyrido[1,2-a][1,7]naphthyridine-6,5′-pyrimidine]-2′,4′,6′(3′H)-trione]",1

# Same assay, conditions: E. coli DNA gyrase supercoiling; asterisk: no IC50 obtained at or below the indicated concentration; read-out: IC50
row,Compound,IC50 [µM]
1,"CC1CN2c3ncc(-c4nccs4)cc3CC3(C(=O)NC(=O)NC3=O)C2C(C)O1 [Example 25, (6aS,7S,9R)-rel-7,9-Dimethyl-3-(1,3-thiazol-2-yl)-6a., 7,9,10-tetrahydro-2′H,5H-spiro[1,4-oxazino[4,3-a][1,8]naphthyridine-6,5′-pyrimidine]-2′,4′,6′(1′H,3′H)-trione]",9
2,"CC1CN2c3ncc(-c4ccnn4C)cc3CC3(C(=O)NC(=O)NC3=O)C2C(C)O1 [Example 41, (6aS,7S,9R)-rel-7,9-Dimethyl-3-(1-methyl-1H-pyrazol-5-yl)-6a., 7,9,10-tetrahydro-2′H,5H-spiro[1,4-oxazino[4,3-a][1,8]naphthyridine-6,5′-pyrimidine]-2′,4′,6′(1′H,3′H)-trione]",5
3,"CC1CN2c3ncc(-c4cn[nH]c4)cc3CC3(C(=O)NC(=O)NC3=O)C2C(C)O1 [Example 44, (6aS,7S,9R)-rel-7,9-Dimethyl-3-(1H-pyrazol-4-yl)-6a., 7,9,10-tetrahydro-2′H,5H-spiro[1,4-oxazino[4,3-a][1,8]naphthyridine-6,5′-pyrimidine]-2′,4′,6′(1′H,3′H)-trione]",> 10
4,"(2R,4S,4aS)-rel-2,4-Dimethyl-8-(1H-pyrazol-4-yl)-1,2,4,4a-tetrahydro-2′H,6H-spiro[1,4-oxazino[4,3-a][1,5]naphthyridine-5,5′-pyrimidine]-2′,4′,6′(1′H,3′H)-trione [Example 72]",> 5
5,"(6aS,7S,9R)-rel-3-(6-Methoxypyrazin-2-yl)-7,9-dimethyl-6a,7,9,10-tetrahydro-2′H,5H-spiro[1,4-oxazino[4,3-a][1,7]naphthyridine-6,5′-pyrimidine]-2′,4′,6′(1′H,3′H)-trione [Example 105]",19
